Among the test systems are EKVX; K562; NCI-H522; NCI-H460; SF-268; 786-0; SK-OV-3; COLO 205; HOP-92; SW-620; RXF 393; SK-MEL-28; SF-295; A549; OVCAR-5; IGROV-1; MDA-MB-231; MDA-MB-435; MCF7.
Common to all, as to experiment: growth of human tumour cells (NCI), 48 h

The values below come from ChEMBL document CHEMBL1201862, “PubChem BioAssay data set” (2004).

Structures are written as SMILES.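 How tested: cells in 96-well plates exposed to compound for 48 hours at five concentrations. At the GI50, growth is halved.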 Activity calls are given as the source filed them. Cut-off read from the data, not from the text of the source: active = GI50 up to about 1.1 µM and inactive = higher. Some results are limits rather than exact numbers.

Take `CC1=NN(C(=O)c2ccc(Cl)cc2)C(=O)/C1=C/c1ccc(O)cc1`: the GI50 with EKVX, in the assay with K562, with NCI-H522, with NCI-H460, in the assay on SF-268 and in the assay on 786-0 was > 100 µM (inactive) throughout. Besides, the GI50 with SK-OV-3, with COLO 205, in the assay on HOP-92, in the assay on SW-620, in the assay with RXF 393 and in the assay on SK-MEL-28 was > 100 µM (inactive) in each case. In addition, the GI50 in the assay with SF-295, in the assay on A549, in the assay with OVCAR-5 and in the assay on IGROV-1 was > 100 µM (inactive) each time.

As for `COC(=O)Cc1cccc2c(=O)c(S(=O)(=O)NC(=O)Nc3ccc(Cl)cc3)c(-c3ccccc3)oc12`, the GI50 is > 100 µM (inactive) in the assay with EKVX; 29.2 µM (inactive) in the assay with MDA-MB-231; 4.3 µM (inactive) in the assay with K562; 16.4 µM (inactive) with NCI-H522; 32.7 µM (inactive) with NCI-H460; 73.5 µM (inactive) in the assay with SF-268. Further, the GI50 in the assay with 786-0 is > 100 µM (inactive); in the assay with MDA-MB-435, 11.3 µM (inactive); with SK-OV-3 it was > 100 µM (inactive); in the assay with COLO 205, 34.4 µM (inactive); in the assay with HOP-92, 29.6 µM (inactive); in the assay with SW-620 it was 13.9 µM (inactive). Further, the GI50 is 34.6 µM (inactive) in the assay with SK-MEL-28; 67.9 µM (inactive) in the assay on SF-295; 47.8 µM (inactive) with MCF7; 69.2 µM (inactive) in the assay on A549; > 100 µM (inactive) with OVCAR-5; 38.5 µM (inactive) in the assay with IGROV-1.

With `Cc1ccccc1/N=C/c1ccc(N(CCC#N)S(=O)(=O)c2ccccc2)cc1`, the GI50 in the assay with EKVX was > 100 µM (inactive); with K562 it was > 100 µM (inactive); with NCI-H522 it was 70.1 µM (inactive); with NCI-H460, > 100 µM (inactive); in the assay with SF-268, > 100 µM (inactive); in the assay with 786-0 it was > 100 µM (inactive). The GI50 in the assay on SK-OV-3, with COLO 205, in the assay on HOP-92, in the assay with SW-620, with RXF 393 and in the assay on SK-MEL-28 was > 100 µM (inactive) in each case. Moreover, the GI50 in the assay on SF-295, in the assay on A549, in the assay on OVCAR-5 and with IGROV-1 was > 100 µM (inactive) in each case.

As for `Nc1ccc(Oc2ccc(C3(c4ccc(Oc5ccc(N)cc5)cc4)C4CC5CC(C4)CC3C5)cc2)cc1`, the GI50 was 9.53 µM (inactive) in the assay on EKVX; 17 µM (inactive) in the assay on MDA-MB-231; 3.89 µM (inactive) in the assay with K562; 11 µM (inactive) in the assay on NCI-H522; 2.42 µM (inactive) in the assay on NCI-H460; 20.3 µM (inactive) in the assay with SF-268. In addition, the GI50 was 4.57 µM (inactive) in the assay with 786-0; 8.05 µM (inactive) in the assay with MDA-MB-435; 3.72 µM (inactive) with COLO 205; 11.5 µM (inactive) with HOP-92; 4.26 µM (inactive) in the assay on SW-620; 6.3 µM (inactive) with RXF 393. For the same compound, the GI50 with SK-MEL-28 is 16.5 µM (inactive); in the assay with SF-295 it was 6.76 µM (inactive); in the assay on MCF7, 3.55 µM (inactive); in the assay with A549 it was 6.08 µM (inactive); in the assay on OVCAR-5, 19.9 µM (inactive); in the assay on IGROV-1, 12.8 µM (inactive).

As for `COc1ccc2c(c1)[n+]([O-])c(C(=O)CC(=O)C(=O)Nc1cccc(Cl)c1C)c(C)[n+]2[O-]`, the GI50 with EKVX was > 100 µM (inactive); in the assay with K562, 60.7 µM (inactive); with NCI-H522, 26.2 µM (inactive); in the assay with NCI-H460, > 100 µM (inactive); with SF-268 it was > 100 µM (inactive); in the assay with 786-0, > 100 µM (inactive). Moreover, the GI50 is > 100 µM (inactive) in the assay with SK-OV-3; 53.7 µM (inactive) in the assay on COLO 205; > 100 µM (inactive) with HOP-92; 68.9 µM (inactive) in the assay with SW-620; > 100 µM (inactive) with RXF 393; > 100 µM (inactive) in the assay with SK-MEL-28. In addition, the GI50 in the assay with SF-295, with A549, in the assay with OVCAR-5 and in the assay on IGROV-1 was > 100 µM (inactive) in each case.

`CC1OC(=O)c2ccccc2NC1=O` (centres undefined): the GI50 in the assay on EKVX, in the assay on MDA-MB-231, with K562, in the assay with NCI-H522, with NCI-H460 and in the assay with SF-268 was > 100 µM (inactive) throughout. The GI50 in the assay with 786-0, with MDA-MB-435, with SK-OV-3, in the assay with COLO 205, in the assay on HOP-92 and in the assay on SW-620 was > 100 µM (inactive) each time. Further, the GI50 in the assay with RXF 393, in the assay with SK-MEL-28, in the assay on SF-295, with A549, in the assay on OVCAR-5 and in the assay with IGROV-1 was > 100 µM (inactive) each time.

Take `CCCCCC1C2C(=O)NC(=O)C1C(=O)NC2=O` (centres undefined): the GI50 in the assay with EKVX, with K562, in the assay with NCI-H522, with NCI-H460, with SF-268 and in the assay on 786-0 was > 100 µM (inactive) throughout. The GI50 with SK-OV-3, in the assay on COLO 205, with HOP-92, in the assay with SW-620, in the assay on RXF 393 and in the assay on SK-MEL-28 was > 100 µM (inactive) each time. Besides, the GI50 with SF-295, with A549, in the assay with OVCAR-5 and with IGROV-1 was > 100 µM (inactive) each time.

Regarding `CC(C)[N+]([O-])(CCCNc1c2ccccc2nc2cccc([N+](=O)[O-])c12)C(C)C`, the GI50 was < 0.0367 µM (active) with EKVX; < 0.01 µM (active) in the assay with MDA-MB-231; < 0.0355 µM (active) with K562; 0.0294 µM (active) in the assay with NCI-H522; 0.06 µM (active) in the assay with NCI-H460; 0.0467 µM (active) with 786-0. For the same compound, the GI50 is < 0.0325 µM (active) in the assay on MDA-MB-435; 0.262 µM (active) in the assay on SK-OV-3; < 0.019 µM (active) in the assay with COLO 205; < 0.0355 µM (active) in the assay on HOP-92; < 0.0258 µM (active) in the assay on SW-620; 0.172 µM (active) with RXF 393. Also, the GI50 with SK-MEL-28 was < 0.01 µM (active); with SF-295 it was < 0.0412 µM (active); with MCF7 it was < 0.0272 µM (active); in the assay with A549, < 0.0282 µM (active); with OVCAR-5 it was < 0.0395 µM (active).

Turning to `CSc1nc2c(c(=O)n1C)N=C(c1ccccc1)[C@H](C(CC(=O)c1ccccc1)c1ccccc1)C(c1ccccc1)N2` (some centres undefined), the GI50 in the assay with EKVX was 15.8 µM (inactive); with MDA-MB-231, > 100 µM (inactive); in the assay on K562, 54.5 µM (inactive); in the assay on NCI-H522 it was 20.5 µM (inactive); in the assay on NCI-H460, 9.2 µM (inactive); in the assay on 786-0, > 100 µM (inactive). For the same compound, the GI50 is > 100 µM (inactive) with MDA-MB-435; > 100 µM (inactive) with COLO 205; > 100 µM (inactive) in the assay on HOP-92; 26.1 µM (inactive) with SW-620; 65.6 µM (inactive) with RXF 393; > 100 µM (inactive) in the assay on SK-MEL-28. Moreover, the GI50 in the assay on SF-295 is > 100 µM (inactive); in the assay on MCF7, 37.1 µM (inactive); with A549, 31.8 µM (inactive); in the assay on OVCAR-5 it was > 100 µM (inactive); with IGROV-1, > 100 µM (inactive).

Turning to `CC12CCc3ccccc3C1=NNC(=O)C2` (centres undefined), the GI50 in the assay on EKVX, in the assay with K562, in the assay on NCI-H522, in the assay with NCI-H460, in the assay on SF-268 and in the assay with 786-0 was > 100 µM (inactive) throughout. Moreover, the GI50 with SK-OV-3, in the assay on COLO 205, in the assay with HOP-92, in the assay with SW-620, with RXF 393 and in the assay with SK-MEL-28 was > 100 µM (inactive) in each case. In addition, the GI50 with SF-295, in the assay with A549, with OVCAR-5 and in the assay on IGROV-1 was > 100 µM (inactive) in each case.

Consider `COC(=O)C1=C(c2ccc(Cl)cc2)C(O)NC(NN)=N1` (centres undefined), for which the GI50 in the assay with EKVX, in the assay with K562, with NCI-H522, with NCI-H460, in the assay with SF-268 and with 786-0 was > 100 µM (inactive) in each case. The GI50 with SK-OV-3, in the assay with HOP-92, with SW-620, in the assay with RXF 393, with SK-MEL-28 and in the assay with SF-295 was > 100 µM (inactive) throughout. In addition, the GI50 in the assay on A549, in the assay with OVCAR-5 and in the assay on IGROV-1 was > 100 µM (inactive) throughout.

On to `CCCCCCCC1(c2ccc(N)cc2)CCC(=O)NC1=O` (centres undefined), for which the GI50 is 23.5 µM (inactive) in the assay on EKVX; 28.4 µM (inactive) in the assay with K562; 27.2 µM (inactive) in the assay on NCI-H522; 26.7 µM (inactive) with NCI-H460; 34.4 µM (inactive) in the assay on SF-268; 28.4 µM (inactive) in the assay on 786-0. Also, the GI50 is 33 µM (inactive) with SK-OV-3; 21.9 µM (inactive) with COLO 205; 15.2 µM (inactive) with HOP-92; 58.2 µM (inactive) with SW-620; 28 µM (inactive) in the assay on RXF 393; 28.7 µM (inactive) in the assay on SK-MEL-28. Further, the GI50 was 30.4 µM (inactive) in the assay with SF-295, 31.6 µM (inactive) in the assay with A549, 31.6 µM (inactive) with OVCAR-5 and 32.3 µM (inactive) with IGROV-1.
